molecular target: GST tagged truncated human mutant G2019S LRRK2 (Homo sapiens (Human), UniProt Q5S007, G2019S); test: LRRK2 Km ATP LanthaScreen Assay; format: biochemical; details: G2019S LRRK2, 134 μM ATP (Km ATP), mean values
Summary of the method: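 Enzyme (GST-tagged, truncated) was preincubated with compound for 15 min at RT in 50 mM Tris pH 8.5, 10 mM MgCl2, 0.01% Brij-35, 1 mM EGTA, 2 mM DTT and 0.05 mM orthovanadate. Fluorescein-LRRKtide and 134 μM ATP (Km) were then added for 90 min. EDTA and Tb-anti-pERM antibody stopped the reaction; the TR-FRET 520/495 ratio gave 4-parameter IC50s, reported as mean pIC50.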

Chain of GST tagged truncated human mutant G2019S LRRK2 (Q5S007 970-2527 G2019S): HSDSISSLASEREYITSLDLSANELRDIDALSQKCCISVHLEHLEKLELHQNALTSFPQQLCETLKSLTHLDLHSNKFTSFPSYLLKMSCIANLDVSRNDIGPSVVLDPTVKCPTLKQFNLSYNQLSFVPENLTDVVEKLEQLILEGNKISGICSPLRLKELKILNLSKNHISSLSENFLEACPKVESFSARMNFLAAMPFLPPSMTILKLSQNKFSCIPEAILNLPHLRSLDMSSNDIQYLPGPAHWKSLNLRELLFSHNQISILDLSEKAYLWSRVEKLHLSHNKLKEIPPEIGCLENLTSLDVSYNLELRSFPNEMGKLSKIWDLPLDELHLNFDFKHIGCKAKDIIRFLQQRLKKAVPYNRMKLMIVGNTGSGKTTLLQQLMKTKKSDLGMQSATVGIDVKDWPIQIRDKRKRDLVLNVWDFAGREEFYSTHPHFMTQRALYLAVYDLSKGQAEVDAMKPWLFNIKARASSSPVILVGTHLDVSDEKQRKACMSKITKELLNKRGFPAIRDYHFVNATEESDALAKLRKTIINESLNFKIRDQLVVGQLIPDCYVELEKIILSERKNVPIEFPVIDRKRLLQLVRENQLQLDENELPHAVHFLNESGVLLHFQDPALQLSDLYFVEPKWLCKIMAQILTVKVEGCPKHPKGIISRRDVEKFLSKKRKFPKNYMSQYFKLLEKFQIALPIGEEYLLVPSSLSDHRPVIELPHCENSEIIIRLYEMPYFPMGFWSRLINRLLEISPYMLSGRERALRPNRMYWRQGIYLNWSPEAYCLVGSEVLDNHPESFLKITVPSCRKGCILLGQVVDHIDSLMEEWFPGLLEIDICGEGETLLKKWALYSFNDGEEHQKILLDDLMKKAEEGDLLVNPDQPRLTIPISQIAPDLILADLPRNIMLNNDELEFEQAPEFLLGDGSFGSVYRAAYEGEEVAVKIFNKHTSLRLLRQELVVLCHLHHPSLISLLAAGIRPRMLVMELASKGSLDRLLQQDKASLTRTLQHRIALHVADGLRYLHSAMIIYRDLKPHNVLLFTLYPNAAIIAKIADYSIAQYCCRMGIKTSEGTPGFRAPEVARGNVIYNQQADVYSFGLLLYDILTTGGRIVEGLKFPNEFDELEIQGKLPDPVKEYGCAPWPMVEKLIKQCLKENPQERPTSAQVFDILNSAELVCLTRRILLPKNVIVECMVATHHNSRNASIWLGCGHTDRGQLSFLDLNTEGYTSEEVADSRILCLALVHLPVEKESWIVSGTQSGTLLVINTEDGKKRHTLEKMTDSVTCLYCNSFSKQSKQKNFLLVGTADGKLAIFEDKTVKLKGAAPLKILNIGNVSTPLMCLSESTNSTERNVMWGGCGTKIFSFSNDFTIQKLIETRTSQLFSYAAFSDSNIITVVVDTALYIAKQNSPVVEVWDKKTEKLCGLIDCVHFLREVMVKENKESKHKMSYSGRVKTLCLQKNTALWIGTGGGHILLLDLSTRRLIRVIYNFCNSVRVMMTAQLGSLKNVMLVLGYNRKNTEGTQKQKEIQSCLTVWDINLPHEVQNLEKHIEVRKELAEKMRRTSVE

For `O[C@H]1COC[C@H]1N1CCC(c2cc3nc(Nc4cnn(C5CC5)c4Cl)ncc3cc2Cl)CC1` (single isomer, unassigned) [Ex-4.104, (3S,4S) or (3R,4R) 4-(4-(6-chloro-2-((5-chloro-1-cyclopropyl-1H-pyrazol-4-yl)amino)quinazolin-7-yl)piperidin-1-yl)tetrahydrofuran-3-ol], the “LRRK2 pIC50” value was over 9.20.
`CC1CC(c2cc3nc(Nc4cnn(C5CC5)c4Cl)ncc3cc2Cl)CCN1C1COC1` (single isomer, unassigned) [Ex-4.106, (2S,4S) or (2R,4R) or (2S,4R) or (2R,4S) 6-chloro-N-(5-chloro-1-cyclopropyl-1H-pyrazol-4-yl)-7-(2-methyl-1-(oxetan-3-yl)piperidin-4-yl)quinazolin-2-amine] was tested, and the “LRRK2 pIC50” value was over 9.20.
For `O[C@H]1COCC1N1CC[C@@H](c2cc3nc(Nc4cnn(C5CC5)c4Cl)ncc3cc2Cl)[C@H](F)C1` (single isomer, unassigned) [Ex-4.122, (3S,4S)(3S,4S) or (3S,4S)(3R,4R) or (3R,4R)(3S,4S) or (3R,4R)(3R,4R) 4-{6-chloro-2-[(5-chloro-1-cyclopropyl-1H-pyrazol-4-yl)amino]quinazolin-7-yl}-3-fluoropiperidin-1-yl]oxolan-3-ol], the “LRRK2 pIC50” value was over 9.20.
With `Cc1c(Nc2ncc3cc(Cl)c([C@@H]4CCN(C5COC[C@@H]5O)C[C@H]4F)cc3n2)cnn1C1CC1` (single isomer, unassigned) [Ex-4.127, (3S,4S)(3S,4S) or (3S,4S)(3R,4R) or (3R,4R)(3S,4S) or (3R,4R)(3R,4R) 4-[4-{6-chloro-2-[(1-cyclopropyl-5-methyl-1H-pyrazol-4-yl)amino]quinazolin-7-yl}-3-fluoropiperidin-1-yl]oxolan-3-ol] the “LRRK2 pIC50” value was over 9.20.

Point of comparison: `Cc1nsc(Nc2ncc3cc(Cl)c([C@@H]4CCN(C5COC[C@@H]5O)C[C@H]4F)cc3n2)c1Cl` (single isomer, unassigned) [Ex-4.120, (3S,4S)(3S,4S) or (3S,4S)(3R,4R) or (3R,4R)(3S,4S) or (3R,4R)(3R,4R) 4-{6-chloro-2-[(4-chloro-3-methyl-1,2-thiazol-5-yl)amino]quinazolin-7-yl}-3-fluoropiperidin-1-yl]oxolan-3-ol], “LRRK2 pIC50” value 7.65. Against it:
- O[C@@H]1COC[C@@H]1N1CCC(c2cc3nc(Nc4cnn(C5CC5)c4Cl)ncc3cc2Cl)CC1 (single isomer, unassigned) [Ex-4.105, (3S,4S) or (3R,4R) 4-(4-(6-chloro-2-((5-chloro-1-cyclopropyl-1H-pyrazol-4-yl)amino)quinazolin-7-yl)piperidin-1-yl)tetrahydrofuran-3-ol] — higher, 8.51
- CC1CC(c2cc3nc(Nc4cnn(C5CC5)c4Cl)ncc3cc2Cl)CCN1C1COC1 (single isomer, unassigned) [Ex-4.107, (2S,4S) or (2R,4R) or (2S,4R) or (2R,4S) 6-chloro-N-(5-chloro-1-cyclopropyl-1H-pyrazol-4-yl)-7-(2-methyl-1-(oxetan-3-yl)piperidin-4-yl)quinazolin-2-amine] — higher, 8.52
- N#CC1CCC(N2CC[C@@H](c3cc4nc(Nc5cnn(C6CC6)c5Cl)ncc4cc3Cl)[C@H](F)C2)C1 (single isomer, unassigned) [Ex-4.108, (1R,3S)-3-((3S,4S) or (1S,3R)-3-((3S,4S) or (1R,3R)-3-((3S,4S) or (1S,3S)-3-((3S,4S) or (1R,3S)-3-((3R,4R) or (1S,3R)-3-((3R,4R) or (1R,3R)-3-((3R,4R) or 1S,3S)-3-((3R,4R) 4-(6-chloro-2-((5-chloro-1-cyclopropyl-1H-pyrazol-4-yl)amino)quinazolin-7-yl)-3-fluoropiperidin-1-yl)cyclopentane-1-carbonitrile] — higher, 8.49
- N#CC1CCC(N2CC[C@@H](c3cc4nc(Nc5cnn(C6CC6)c5Cl)ncc4cc3Cl)[C@H](F)C2)C1 (single isomer, unassigned) [Ex-4.109, (1R,3S)-3-((3S,4S) or (1S,3R)-3-((3S,4S) or (1R,3R)-3-((3S,4S) or (1S,3S)-3-((3S,4S) or (1R,3S)-3-((3R,4R) or (1S,3R)-3-((3R,4R) or (1R,3R)-3-((3R,4R) or 1S,3S)-3-((3R,4R) 4-(6-chloro-2-((5-chloro-1-cyclopropyl-1H-pyrazol-4-yl)amino)quinazolin-7-yl)-3-fluoropiperidin-1-yl)cyclopentane-1-carbonitrile] — higher, 7.99
- N#CC1CCC(N2CC[C@@H](c3cc4nc(Nc5cnn(C6CC6)c5Cl)ncc4cc3Cl)[C@H](F)C2)C1 (single isomer, unassigned) [Ex-4.110, (1R,3S)-3-((3S,4S) or (1S,3R)-3-((3S,4S) or (1R,3R)-3-((3S,4S) or (1S,3S)-3-((3S,4S) or (1R,3S)-3-((3R,4R) or (1S,3R)-3-((3R,4R) or (1R,3R)-3-((3R,4R) or 1S,3S)-3-((3R,4R) 4-(6-chloro-2-((5-chloro-1-cyclopropyl-1H-pyrazol-4-yl)amino)quinazolin-7-yl)-3-fluoropiperidin-1-yl)cyclopentane-1-carbonitrile] — higher, 8.73
- N#CC1CCC(N2CC[C@@H](c3cc4nc(Nc5cnn(C6CC6)c5Cl)ncc4cc3Cl)[C@H](F)C2)C1 (single isomer, unassigned) [Ex-4.111, (1R,3S)-3-((3S,4S) or (1S,3R)-3-((3S,4S) or (1R,3R)-3-((3S,4S) or (1S,3S)-3-((3S,4S) or (1R,3S)-3-((3R,4R) or (1S,3R)-3-((3R,4R) or (1R,3R)-3-((3R,4R) or 1S,3S)-3-((3R,4R) 4-(6-chloro-2-((5-chloro-1-cyclopropyl-1H-pyrazol-4-yl)amino)quinazolin-7-yl)-3-fluoropiperidin-1-yl)cyclopentane-1-carbonitrile] — higher, 8.55
- Cc1nsc(Nc2ncc3cc(Cl)c([C@@H]4CCN(C5COC[C@H]5O)C[C@H]4F)cc3n2)c1Cl (single isomer, unassigned) [Ex-4.121, (3S,4S)(3S,4S) or (3S,4S)(3R,4R) or (3R,4R)(3S,4S) or (3R,4R)(3R,4R) 4-{6-chloro-2-[(4-chloro-3-methyl-1,2-thiazol-5-yl)amino]quinazolin-7-yl}-3-fluoropiperidin-1-yl]oxolan-3-ol] — higher, 8.92
- O[C@@H]1COCC1N1CC[C@@H](c2cc3nc(Nc4cnn(C5CC5)c4Cl)ncc3cc2Cl)[C@H](F)C1 (single isomer, unassigned) [Ex-4.123, (3S,4S)(3S,4S) or (3S,4S)(3R,4R) or (3R,4R)(3S,4S) or (3R,4R)(3R,4R) 4-{6-chloro-2-[(5-chloro-1-cyclopropyl-1H-pyrazol-4-yl)amino]quinazolin-7-yl}-3-fluoropiperidin-1-yl]oxolan-3-ol] — higher, 8.37
- O=S1(=O)CC(N2CC[C@@H](c3cc4nc(Nc5cnn(C6CC6(F)F)c5Cl)ncc4cc3Cl)[C@H](F)C2)C1 (single isomer, unassigned) [Ex-4.124, (S)(3S,4S) or (S)(3R,4R) or (R)(3S,4S) or (R)(3R,4R) 3-[4-(6-chloro-2-{[5-chloro-1-(2,2-difluorocyclopropyl)-1H-pyrazol-4-yl]amino}quinazolin-7-yl)-3-fluoropiperidin-1-yl]thietane 1,1-dioxide] — higher, 8.91
- O[C@@H]1COCC1N1CC[C@H](c2cc3nc(Nc4cnn(C5CC5(F)F)c4Cl)ncc3cc2Cl)[C@@H](F)C1 (single isomer, unassigned) [Ex-4.125, (R)(3S,4S)(3S,4S) or (R)(3S,4S)(3R,4R) or (R)(3R,4R)(3S,4S) or (R)(3R,4R)(3R,4R) or (S)(3S,4S)(3S,4S) or (S)(3S,4S)(3R,4R) or (S)(3R,4R)(3S,4S) or (S)(3R,4R)(3R,4R) 4-(6-chloro-2-{[5-chloro-1-(2,2-difluorocyclopropyl)-1H-pyrazol-4-yl]amino}quinazolin-7-yl)-3-fluoropiperidin-1-yl]oxolan-3-ol] — higher, 8.16
- Cc1c(Nc2ncc3cc(Cl)c(C4C[C@H]5C[C@@H]4CN5C4COC4)cc3n2)cnn1C1CC1 (single isomer, unassigned) [Ex-4.126, (1S,4S) or (1R,4R) 6-chloro-N-(1-cyclopropyl-5-methyl-1H-pyrazol-4-yl)-7-[2-(oxetan-3-yl)-2-azabicyclo[2.2.1]heptan-5-yl]quinazolin-2-amine] — within 0.2 log units, 7.64

same assay, conditions: G2019S LRRK2, 134 μM ATP (Km ATP), mean values; read-out: LRRK2 pIC50 (converted)

Point of comparison: `CC1(C)CC(N2CCC(c3cc4nc(Nc5cnn(C6CC6)c5Cl)ncc4cc3Cl)CC2)CO1` (single isomer, unassigned) [Ex-4.116, (R) or (S) 6-chloro-N-(5-chloro-1-cyclopropyl-1H-pyrazol-4-yl)-7-(1-(5,5-dimethyltetrahydrofuran-3-yl)piperidin-4-yl)quinazolin-2-amine], IC50 4.47 nM. Against it:
- Clc1cc2cnc(Nc3cnn(C4CC4)c3Cl)nc2cc1C1CCN(C2COC3(CCC3)C2)CC1 (single isomer, unassigned) [Ex-4.114, (R) or (S) 7-(1-(5-oxaspiro[3.4]octan-7-yl)piperidin-4-yl)-6-chloro-N-(5-chloro-1-cyclopropyl-1H-pyrazol-4-yl)quinazolin-2-amine] — 2.2-fold higher, 10 nM
- Clc1cc2cnc(Nc3cnn(C4CC4)c3Cl)nc2cc1C1CCN(C2COC3(CCC3)C2)CC1 (single isomer, unassigned) [Ex-4.115, (R) or (S) 7-(1-(5-oxaspiro[3.4]octan-7-yl)piperidin-4-yl)-6-chloro-N-(5-chloro-1-cyclopropyl-1H-pyrazol-4-yl)quinazolin-2-amine] — 5.3-fold lower, 0.851 nM
- CC1(C)CC(N2CCC(c3cc4nc(Nc5cnn(C6CC6)c5Cl)ncc4cc3Cl)CC2)CO1 (single isomer, unassigned) [Ex-4.117, (R) or (S) 6-chloro-N-(5-chloro-1-cyclopropyl-1H-pyrazol-4-yl)-7-(1-(5,5-dimethyltetrahydrofuran-3-yl)piperidin-4-yl)quinazolin-2-amine] — lower, < 0.631 nM

Reference: patent publication US12540131B2 (Merck Sharp & Dohme LLC, priority 2019, dated 2026)
